Measured values reported in patent publication US12090155B2, “Methods” (INTRA-CELLULAR THERAPIES, INC., priority 2019, dated 2024).
“Also recorded” adds a separate entry of the source.

Tests used:
[1] = tested on: patients with Bipolar I or Bipolar II disorder experiencing a major depressive episode; assay: Phase 3 placebo-controlled clinical trial, efficacy (MADRS, CGI-BP-S); format: in vivo, human
Procedure: (§1) A multi-center, multi-national, randomized, double-blind, fixed-dose, placebo-controlled clinical trial is conducted substantially in accordance with the following protocol.
(§2) Patients are recruited according to the following criteria: • Major Inclusion Criteria: Male or female subjects of any race, ages 18-75 inclusive, with a clinical diagnosis of Bipolar I or Bipolar II disorder, experiencing a current major depressive episode, and able to provide written informed consent. • Major Exclusion Criteria: Any female subject who is pregnant or breast-feeding, and any subject judged to be medically inappropriate for study participation.
(§3) In the placebo arm, placebo is administered once daily every evening for 6 weeks. […] The study is quadruple-masked (i.e., to participant, care provider, investigator, and outcomes assessor).
(§4) The total study duration is about 10 weeks, including up to 2 weeks screening period (washout of prohibited medications), a 6-week double-blind treatment period, and 2-week safety follow-up period.
The primary outcome measure is the Montgomery-Åsberg Depression Rating Scale (MADRS) [Time Frame: Day 43]. Secondary outcome measures are the Clinical Global Impression Scale, Bipolar version (CGI-BP) [Time Frame: Day 43] and the Quality of Life Enjoyment and Satisfaction Questionnaire-Short Form (Q-LES-Q-SF) [Time Frame: Day 43].

[2] = tested on: patients with Bipolar I or Bipolar II disorder experiencing a major depressive episode; assay: Phase 3 placebo-controlled clinical trial, safety and tolerability; format: in vivo, human
Procedure: as §1, §2, §3, §4
Incidence of Adverse Events (AEs) • b. Young Mania Rating Scale (YMRS) • c. Columbia Suicide Severity Rating Scale (C-SSRS) • d. Abnormal Involuntary Movement Scale (AIMS) • e. Barnes Akathisia Rating Scale (BARS) • f. Simpson Angus Scale (SAS) • g. Clinical laboratory evaluations • h. Electrocardiograms (ECGs) • i. Vital sign measurements • j. Physical examination and neurological findings

[3] = 42 mg once daily orally for 6 weeks, Day 43, ITT
[4] = 42 mg once daily orally for 6 weeks, Day 43, listed as lumateperone
[5] = 42 mg once daily orally for 6 weeks, change from baseline to Day 43, ITT
[6] = 42 mg once daily, week 6, ITT population

## CN1CCN2c3c(cccc31)[C@@H]1CN(CCCC(=O)c3ccc(F)cc3)CC[C@@H]12 [Lumateperone, 4-((6bR,10aS)-3-methyl-2,3,6b,9,10,10a-hexahydro-1H-pyrido[3′,4′: 4,5]pyrrolo[1,2,3-de]quinoxalin-8(7H)-yl)-1-(4-fluorophenyl)-1-butanone]
[1]; 42 mg daily, subgroup analysis, Bipolar II disorder
  MADRS total score versus placebo, subgroup of patients with Bipolar II disorder: statistically significant superior versus placebo; also recorded: statistically significant superior to placebo
[1]; 42 mg once daily
  Responder rates and remission rates versus placebo: statistically significant benefits
  Time of first statistically significant separation from placebo on MADRS total score: as early as week 1
[1]; 42 mg once daily orally for 6 weeks, Day 43
  MADRS total score, Effect Size, comparison to placebo at Day 43: −0.56
[1]; [3]
  CGI-BP-S total score, LSMD (SE), comparison to placebo at Day 43: −0.9 (0.22)
  MADRS total score, LSMD (SE), comparison to placebo at Day 43: -4.6
[1]; [4]
  CGI-BP-S total score, Effect Size, comparison to placebo at Day 43: 0.46
  MADRS total score, Effect Size, comparison to placebo at Day 43: 0.56
[1]; [5]
  CGI-BP-S total score, LS Mean (SE) Change at Day 43: −3.5 (0.17)
  MADRS total score, LS Mean (SE) Change at Day 43: −16.7 (0.69)
[1]; 42 mg once daily, 6 weeks
  CGI-S Depression Score, effect size versus placebo: 0.5
[1]; [6]
  MADRS total score, LS mean difference versus placebo: 4.6 points
  MADRS total score, least squares (LS) mean reduction from baseline: 16.7 points
[2]; 42 mg daily
  Emergence of mania as measured by the Young Mania Rating Scale (YMRS) and clinical global impression of severity for mania: did not exhibit emergence of mania
  Extrapyramidal symptoms, akathisia, restlessness or other motor side effects (adverse event reports): does not increase akathisia, restlessness, or other movement disorders; also recorded: no adverse event reports of extrapyramidal symptoms
  Metabolic effects (hyperglycemia, dyslipidemia, weight gain): does not have significant metabolic side effects; also recorded: did not appear to have any noticeable metabolic effects
  Overall safety profile / tolerability: favorable safety profile in this trial, comparable to placebo; also recorded: generally safe and well tolerated
  Rate of the most commonly reported adverse events (headache, somnolence and nausea), higher than placebo: greater than 5%
  Rates of akathisia and extrapyramidal symptoms: less than 1%
  Suicidal ideation (adverse event reports): does not increase suicidal ideation; also recorded: no adverse event reports of suicidal ideation
[2]; 42 mg, N = 188
  Number of patients with drug-related TEAE: 78 (41.5) n (%)
  Number of patients with drug-related treatment-emergent SAE: 0 n (%)
  Number of patients with treatment-emergent SAE: 1 (0.5) n (%)
  Number of patients with treatment-emergent death: 0 n (%)
  Subjects discontinued study due to TEAE: 11 (5.9) n (%)
  Subjects discontinued study due to drug-related TEAE: 9 (4.8) n (%)
  Subjects discontinued study due to drug-related treatment-emergent SAE: 0 n (%)
  Subjects discontinued study due to treatment-emergent SAE: 1 (0.5) n (%)
  Subjects who died: 0 n (%)
[2]; 42 mg, N = 188, safety population
  Number of patients with one or more TEAE: 103 (54.8) n (%)
